Experimental data from the supplement of paper PMC10307832.

Legend:
Assay in all cases: relative viability (nuclei count vs DMSO), 5 days (fraction); higher = more cells survive
[1] = compound: Cc1ccc(NC(=O)c2ccc(CN3CCN(C)CC3)cc2)cc1Nc1nc(-c2cccnc2)cs1 [Masitinib] + COc1cccc2cc(-c3nc([C@H]4CC[C@H](C(=O)O)CC4)n4ncnc(N)c34)[nH]c12 [OSI-027] (partner 0.5 µM)
Summary of the method: (§1)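 Dosing by pin tool came one day after lung cancer cell lines were seeded in 1536-well plates, using either one drug or a fixed anchor-drug dose plus five library-drug doses (not always all listed) in √10 steps. After 5 days, nuclei were counted on 4× images. Relative viability is treated-well nuclei count divided by vehicle-well nuclei count, and values are medians of duplicate plates.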

[2] = compound: Cc1ccc(NC(=O)c2ccc(CN3CCN(C)CC3)cc2)cc1Nc1nc(-c2cccnc2)cs1 [Masitinib] + CC(C)C[C@H](NC(=O)[C@H](Cc1ccccc1)NC(=O)c1cnccn1)B(O)O [Bortezomib] (partner 0.002 µM)
Summary of the method: as §1

[3] = compound: CC1=CC(=CC=C1)NC2=NC(=CS2)C3=CC=NC=C3 + C[C@]1(O)C[C@@H](c2nc(-c3ccc4ccc(-c5ccccc5)nc4c3)c3c(N)nccn32)C1 [Linsitinib] (partner 1 µM)
Summary of the method: as §1

[4] = compound: Cc1ccc(NC(=O)c2ccc(CN3CCN(C)CC3)cc2)cc1Nc1nc(-c2cccnc2)cs1 [Masitinib] + COc1cc2c(Oc3ccc(NC(=O)C4(C(=O)Nc5ccc(F)cc5)CC4)cc3F)ccnc2cc1OCCCN1CCOCC1 [Foretinib] (partner 0.25 µM)
Summary of the method: as §1

UMC-11
relative viability ([1]; first compound 0.03162 µM): 0.46 | relative viability ([1]; first compound 0.1 µM): 0.487 | relative viability ([1]; first compound 0.3162 µM): 0.491 | relative viability ([1]; first compound 1 µM): 0.46 | relative viability ([2]; first compound 0.01 µM): 0.793 | relative viability ([2]; first compound 0.03162 µM): 0.743 | relative viability ([2]; first compound 0.1 µM): 0.79 | relative viability ([2]; first compound 0.3162 µM): 1.03 | relative viability ([2]; first compound 1 µM): 0.714 | relative viability ([3]; first compound 0.08 µM): 0.983 | relative viability ([3]; first compound 0.253 µM): 1 | relative viability ([3]; first compound 0.8 µM): 1.01 | relative viability ([3]; first compound 2.53 µM): 0.977 | relative viability ([3]; first compound 8 µM): 1.05 | relative viability ([4]; first compound 0.03162 µM): 0.951 | relative viability ([4]; first compound 0.1 µM): 1.12 | relative viability ([4]; first compound 0.3162 µM): 1.17 | relative viability ([4]; first compound 1 µM): 1.15
